Paper PMC10648937, “Drug distribution and efficacy of the DprE1 inhibitor BTZ-043 in the C3HeB/FeJ mouse tuberculosis model” (Antimicrobial Agents and Chemotherapy, 2023)
Values joined by “and” are separate entries in the source; they are usually repeats but may differ in a detail not shown here. Identical values can stand only once. Like-named read-outs stand apart in the source and are kept apart here.

How the values were obtained:
[1] = tested on: non-replicating Mtb in rabbit caseum; parameters: method as in PMID 34370580; conditions: similarly reported previously; cited from earlier work
Mtb Erdman [2] = test: Broth microdilution MIC (Alamar Blue endpoint), with and without 4% huSA (serum-shift assay); conditions: for shift in MIC in the presence of huSA: physiologic levels (4%) of huSA
Mtb Erdman [3] = test: Semi-quantitative MBC (sqMBC) assay; type: cell-based, Mycobacterium tuberculosis; conditions: M. tuberculosis Erdman; for sqMBC: 10 d incubation, 99% (2-log10) CFU reduction of inoculum; for sqMBC + huSA: with 4% huSA
Mtb = tested on: Mtb; parameters: method as in PMID 34370580; conditions: C3HeB/FeJ mice, 8 weeks (5 of 7 days per week), cited from earlier work
[4] = C3HeB/FeJ, mouse, in vivo, 1 h
[5] = Plasma and lesion drug levels by LCM-LC/MS-MS in C3HeB/FeJ mice; conditions: 100 mg/kg
Mtb Erdman [6] = test: Efficacy in spleens of Mtb Erdman-infected C3HeB/FeJ mice (CFU, kill rates); type: in vivo, Mycobacterium tuberculosis; conditions: for kill rate k[0-28] (SE), spleens: day 0 to 28; for kill rate k[0-56] (SE), spleens: day 0 to 56; for kill rate k[28-56] (SE), spleens: day 28 to 56
[7] = tested on: non-growing streptomycin-dependent Mtb strain 18b; parameters: method as in PMID 20679505; conditions: cited from earlier work
[8] = tested on: intracellular mycobacteria in macrophages; parameters: method as in PMID 19299584; conditions: cited from earlier work
[9] = tested on: Mtb Erdman-infected C3HeB/FeJ mice; test: Pulmonary histopathology (pathologist scores and LIRA) in C3HeB/FeJ mice; type: in vivo, mouse
[10] = tested on: non-replicating Mtb in rabbit caseum; test: Explanted rabbit caseum MBC assay; type: cell-based, Mycobacterium tuberculosis; conditions: test concentrations up to 512 µM, 7 days
Mtb Erdman [11] = test: Efficacy in lungs of Mtb Erdman-infected C3HeB/FeJ mice (CFU, kill rates); type: in vivo, Mycobacterium tuberculosis; conditions: for kill rate k[0-28] (SE), lungs, Type I (TI) subset / kill rate k[0-56] (SE), lungs, Type I (TI) subset / kill rate k[28-56] (SE), lungs, Type I (TI) subset: TI lesions; for kill rate k[0-28] (SE), lungs, Type III (TIII) subset / kill rate k[0-56] (SE), lungs, Type III (TIII) subset / kill rate k[28-56] (SE), lungs, Type III (TIII) subset: TIII lesions; for kill rate k[0-28] (SE), lungs: day 0 to 28; for kill rate k[0-56] (SE), lungs: day 0 to 56; for kill rate k[28-56] (SE), lungs: day 28 to 56
[12] = human; cited from earlier work
Mtb Erdman [13] = test: In vitro kill kinetics under replicating conditions; type: cell-based, Mycobacterium tuberculosis; conditions: 8× and 20× MIC, CFU/mL over 14 days
[14] = Mycobacterium tuberculosis, ERDMAN
[15] = Mycobacterium tuberculosis, ERDMAN, read-out: MIC + huSA
[16] = 200 mg/kg QD, 8 weeks, group average
[17] = 200 mg/kg QD, 8 weeks, mice Mx I to Mx L
[18] = 50 mg/kg QD, 8 weeks of treatment
[19] = 200 mg/kg QD, 8 weeks of treatment

O=c1nc(N2CCN(CC3CCCCC3)CC2)sc2c([N+](=O)[O-])cc(C(F)(F)F)cc12 [PBTZ169]
activity against non-replicating Mtb in rabbit caseum MBC assay [1]: lacked appreciable activity | MIC (Mtb Erdman [2]; [14]): ≤ 2 ng/mL | MIC (Mtb Erdman [2]; [15]): 16 ng/mL | shift in MIC in the presence of huSA (Mtb Erdman [2]): 8 fold | sqMBC (Mtb Erdman [3]): ≤ 0.002 µg/mL | sqMBC + huSA (Mtb Erdman [3]): 0.016 µg/mL | average lung CFU reduction compared to untreated controls (Mtb; 50 and 100 mg/kg QD): 1.5 log10

C[C@H]1COC2(CCN(c3nc(=O)c4cc(C(F)(F)F)cc([N+](=O)[O-])c4s3)CC2)O1 [BTZ-043]
drug level in cellular lesion over the serum-shifted MIC [4]: 121 fold | drug level in lung parenchyma over the serum-shifted MIC [4]: 228 fold | drug level in plasma over the serum-shifted MIC [4]: 237 fold | drug levels in plasma, lung parenchyma, cellular lesion and cellular-caseum interface relative to serum-shifted MIC ([5]; 2.5 weeks, end of the dosing interval (24 h)): fell below the serum-shifted MIC | drug level in cellular-caseum interface over the serum-shifted MIC ([5]; 5 of 7 days per week for 2.5 weeks, Tmax (1 h)): 93 fold | kill rate k[0-28] (SE), spleens (Mtb Erdman [6]; 50 mg/kg QD): 0.048 (0.006) log10CFU per day | kill rate k[0-56] (SE), spleens (Mtb Erdman [6]; 50 mg/kg QD): 0.026 (0.004) log10CFU per day | kill rate k[28-56] (SE), spleens (Mtb Erdman [6]; 50 mg/kg QD): 0.004 (0.007) log10CFU per day | kill rate k[0-28] (SE), spleens (Mtb Erdman [6]; 100 mg/kg QD): 0.046 (0.006) log10CFU per day | kill rate k[0-56] (SE), spleens (Mtb Erdman [6]; 100 mg/kg QD): 0.041 (0.003) log10CFU per day | kill rate k[28-56] (SE), spleens (Mtb Erdman [6]; 100 mg/kg QD): 0.036 (0.006) log10CFU per day | kill rate k[0-28] (SE), spleens (Mtb Erdman [6]; 200 mg/kg QD): 0.057 (0.005) log10CFU per day | kill rate k[0-56] (SE), spleens (Mtb Erdman [6]; 200 mg/kg QD): 0.046 (0.003) log10CFU per day | kill rate k[28-56] (SE), spleens (Mtb Erdman [6]; 200 mg/kg QD): 0.034 (0.006) log10CFU per day | mice with spleen CFU below the lower limit of detection (Mtb Erdman [6]; 200 mg/kg, 8 weeks, limit 1.7 log10 CFU/spleen): 4 out of 8 | effect on spleen bacterial load (Mtb Erdman [6]; 4 weeks of treatment, all dose groups, Dunnett's P = 0.003 to 0.0001): statistically significant reductions | effect on spleen burdens (Mtb Erdman [6]; 8 weeks of treatment, Dunnett's P < 0.0001): statistically significant reductions | activity against non-growing Mtb strain 18b following depletion of streptomycin [7]: limited activity | deduced MIC against intracellular mycobacteria in macrophages [8]: < 10 ng/mL | percent lung involvement, Healthy Tissue (LIRA), average [9, 16]: 73.70% | percent lung involvement, Type I - Caseum (LIRA), average [9, 16]: 10% and 10.01% | percent lung involvement, Type I - Rim (LIRA), average [9, 16]: 4.85% | percent lung involvement, Type II (LIRA), average [9, 16]: 0% | percent lung involvement, Type III (LIRA), average [9, 16]: 11% and 11.44% | percent lung involvement, Healthy Tissue (LIRA), individual mice [9, 17]: 90.59% and 66.70% and 47.22% and 90.31% | percent lung involvement, Type I - Caseum (LIRA), individual mice [9, 17]: 2.82% and 6.51% and 30.69% and 0.00% | percent lung involvement, Type I - Rim (LIRA), individual mice [9, 17]: 3.75% and 4.76% and 10.89% and 0.00% | percent lung involvement, Type II (LIRA), individual mice [9, 17]: 0.00% | percent lung involvement, Type III (LIRA), individual mice [9, 17]: 2.83% and 22.03% and 11.21% and 9.69% | histology scores by board-certified pathologist ([9]; 200 mg/kg, 8 weeks of treatment, compared to untreated mice): improved overall histology scores | protein binding indicated by serum-shift MIC assay (Mtb Erdman [2]; 4% huSA): ~ 75% | MIC (Mtb Erdman [2]; M. tuberculosis Erdman, 7H9 media): 8 ng/mL | MIC (Mtb Erdman [2]; [14]): 8 ng/mL | MIC (Mtb Erdman [2]; [15]): 30 ng/mL | sqMBC (Mtb Erdman [3]): 0.016 µg/mL | sqMBC + huSA (Mtb Erdman [3]): 0.03 µg/mL | activity against non-replicating Mtb in rabbit caseum MBC assay [10]: lacked appreciable activity | lung CFU reduction from the start of treatment (Mtb Erdman [11]; [18]): ~ 1.04 log10 CFU | lung CFU reduction versus untreated (Mtb Erdman [11]; [18]): ~ 2.43 log10 CFU | kill rate k[0-28] (SE), lungs, Type I (TI) subset (Mtb Erdman [11]; 50 mg/kg QD): 0.011 (0.010) log10CFU per day | kill rate k[0-56] (SE), lungs, Type I (TI) subset (Mtb Erdman [11]; 50 mg/kg QD): 0.023 (0.008) log10CFU per day | kill rate k[28-56] (SE), lungs, Type I (TI) subset (Mtb Erdman [11]; 50 mg/kg QD): 0.032 (0.015) log10CFU per day | kill rate k[0-28] (SE), lungs, Type III (TIII) subset (Mtb Erdman [11]; 50 mg/kg QD): 0.063 (0.007) log10CFU per day | kill rate k[0-56] (SE), lungs, Type III (TIII) subset (Mtb Erdman [11]; 50 mg/kg QD): 0.039 (0.007) log10CFU per day | kill rate k[28-56] (SE), lungs, Type III (TIII) subset (Mtb Erdman [11]; 50 mg/kg QD): 0.005 (0.010) log10CFU per day | kill rate k[0-28] (SE), lungs (Mtb Erdman [11]; 50 mg/kg QD): 0.022 log10CFU per day and 0.022 (0.018) log10CFU per day | kill rate k[0-56] (SE), lungs (Mtb Erdman [11]; 50 mg/kg QD): 0.019 (0.009) log10CFU per day | kill rate k[28-56] (SE), lungs (Mtb Erdman [11]; 50 mg/kg QD): 0.015 log10CFU per day and 0.015 (0.021) log10CFU per day | kill rate k[0-28] (SE), lungs, Type I (TI) subset (Mtb Erdman [11]; 100 mg/kg QD): 0.011 (0.011) log10CFU per day | kill rate k[0-56] (SE), lungs, Type I (TI) subset (Mtb Erdman [11]; 100 mg/kg QD): 0.047 (0.011) log10CFU per day | kill rate k[28-56] (SE), lungs, Type I (TI) subset (Mtb Erdman [11]; 100 mg/kg QD): 0.078 (0.017) log10CFU per day | kill rate k[0-28] (SE), lungs, Type III (TIII) subset (Mtb Erdman [11]; 100 mg/kg QD): 0.041 (0.007) log10CFU per day | kill rate k[0-56] (SE), lungs, Type III (TIII) subset (Mtb Erdman [11]; 100 mg/kg QD): 0.022 (0.005) log10CFU per day | kill rate k[28-56] (SE), lungs, Type III (TIII) subset (Mtb Erdman [11]; 100 mg/kg QD): 0.003 (0.015) log10CFU per day | kill rate k[0-28] (SE), lungs (Mtb Erdman [11]; 100 mg/kg QD): 0.006 log10CFU per day and 0.006 (0.013) log10CFU per day | kill rate k[0-56] (SE), lungs (Mtb Erdman [11]; 100 mg/kg QD): 0.031 (0.007) log10CFU per day | kill rate k[28-56] (SE), lungs (Mtb Erdman [11]; 100 mg/kg QD): 0.056 log10CFU per day and 0.056 (0.015) log10CFU per day | lung CFU reduction from the start of treatment (Mtb Erdman [11]; [19]): ~ 2.59 log10 CFU | lung CFU reduction versus untreated (Mtb Erdman [11]; [19]): ~ 3.98 log10 CFU | kill rate k[0-28] (SE), lungs, Type I (TI) subset (Mtb Erdman [11]; 200 mg/kg QD): 0.023 (0.011) log10CFU per day | kill rate k[0-56] (SE), lungs, Type I (TI) subset (Mtb Erdman [11]; 200 mg/kg QD): 0.042 (0.009) log10CFU per day | kill rate k[28-56] (SE), lungs, Type I (TI) subset (Mtb Erdman [11]; 200 mg/kg QD): 0.062 (0.014) log10CFU per day | kill rate k[0-28] (SE), lungs, Type III (TIII) subset (Mtb Erdman [11]; 200 mg/kg QD): 0.019 (0.009) log10CFU per day | kill rate k[0-56] (SE), lungs, Type III (TIII) subset (Mtb Erdman [11]; 200 mg/kg QD): 0.049 (0.005) log10CFU per day | kill rate k[28-56] (SE), lungs, Type III (TIII) subset (Mtb Erdman [11]; 200 mg/kg QD): 0.079 (0.015) log10CFU per day | kill rate k[0-28] (SE), lungs (Mtb Erdman [11]; 200 mg/kg QD): 0.005 log10CFU per day and 0.005 (0.010) log10CFU per day | kill rate k[0-56] (SE), lungs (Mtb Erdman [11]; 200 mg/kg QD): 0.046 (0.008) log10CFU per day | kill rate k[28-56] (SE), lungs (Mtb Erdman [11]; 200 mg/kg QD): 0.087 log10CFU per day and 0.087 (0.013) log10CFU per day | effect on lung bacterial load (Mtb Erdman [11]; 4 weeks of treatment, all dose groups (50, 100, 200 mg/kg), Dunnett's P = 0.002 to 0.03): statistically significant reductions | effect on lung bacterial load (Mtb Erdman [11]; 8 weeks of treatment, all dose groups, Dunnett's P < 0.0001): statistically significant reduction | plasma protein binding [12]: 99.4% | kill kinetics (cidality) (Mtb Erdman [13]): cidality

O=C1CCc2c(OC[C@]3(O)CCN(c4c(F)cc(Cl)cc4F)C[C@H]3O)ccc(F)c2N1 [OPC-167832]
activity against non-replicating Mtb in rabbit caseum MBC assay [1]: lacked appreciable activity | MIC (Mtb Erdman [2]; [14]): 0.5 ng/mL | MIC (Mtb Erdman [2]; [15]): 8 ng/mL | shift in MIC in the presence of huSA (Mtb Erdman [2]): 16 fold | sqMBC (Mtb Erdman [3]): 0.001 µg/mL | sqMBC + huSA (Mtb Erdman [3]): 0.016 µg/mL | average lung CFU reduction compared to untreated controls (Mtb; 5 and 20 mg/kg QD): 3 log10
